The test system of series [1] is bone tissue. Put plainly: Salmon calcitonin/PTS893 monkey study: histomorphometry of bone tissue (tibia, vertebra). In kind it is in vivo, cynomolgus monkeys (Macaca fascicularis). How it is done: Bone sections were stained for osteonectin, osteopontin and osteocalcin and were evaluated histopathologically. Histomorphometry of the bone tissue was performed regarding parameters for bone resorption and synthesis (osteoid formation).
Histomorphometry of bone tissue was performed to determine parameters related to bone resorption and bone synthesis (osteoid formation).

The subject of series [2] is uterine gene expression. Kind of series: Ranking of drug activity according to uterine GEP (GEP scoring axis, PCA; estrogenic potency score). In kind it is in vivo, cynomolgus monkeys (Macaca fascicularis). The text has this:
To define a reference axis representing the desired pharmacological/toxicological action, we used a priori knowledge of 2 groups representing or approximating the extremes of the condition under study. These consisted of the OVX group (OVX untreated animals representing the one extreme) and OVX+estradiol (OVX animals treated with estradiol, an agent know to exercise a well-defined action, representing the other extreme). These two groups were used to quantitatively scale the axis. Other compounds were then positioned on this axis whereby the drugs could be ranked with regard to specific aspects of a pharmacological/toxicological action.
Generally, the data derived from an individual microarray, proteomic, or metabolite profiling experiment can be considered as a fingerprint. […] Thus, selection and elimination of the appropriate features is an important aspect of this methodology and the quantitative nature of this approach depends on the features used to define the axis of drug action.
In the case of a well-defined condition, it is possible to invoke a priori knowledge on the selection of features. If the molecular biology of the specific drug action is known, the features (e.g. genes, metabolites) to be used for the definition of the axis can be defined a priori. In the case of a less-well-defined condition, it is possible to use univariate filters (in this case, gene intensity >50, ≧1.5-fold change in expression vs. controls [OVX], and statistical significance and statistical methods to identify and exclude non-informative features.
Issues of transformation, centering (variable-wise), and scaling of the data were considered. In the case of microarrays, the data were log10-transformed and probe set-wise centered. Generally, no scaling was applied. When using only a small number of biologically identified features, these were scaled to unit variance.
To calculate the axis of drug action, a principal component axis (PCA) was performed using only the 2 treatment groups that were at the extremes (the untreated OVX animals vs. the estrodiol-treated OVX animals). Massart D L et al., Handbook for Chemometrics and Qualimetrics, Part a. (Elsevier; 1997); Jolliffe I T. Principal Component Analysis. 2nd Edition (Springer; New York, N.Y., 2002). Only 1 principal component (PC) was calculated, which was a weighted linear combination of all features in the input data pointing in the direction of maximum variance. The weights of the probe sets in this linear combination were called “loadings” and their absolute value is a measure of their importance in explaining the difference between the 2 groups. Every measurement in the experiment (e.g. microarray) could then be represented by its coordinate (score) on the PC. Alternatively, to obtain an even better separation between the groups, the PLS-DA (Partial-Least-Squares Discriminate Analysis) method with a 0/1 dummy variable as response vector was used. […] Massart D L et al., Handbook of Chemometrics and Qualimetrics, Part b. (Elsevier; 1997). The next step was identification of the features that were important for the definition of the axis. This was based on the magnitude of their loadings and their statistical significance using error estimates based on cross-validation and/or normal probability plots of the loadings. Hunter W G & Hunter J S. Statistics for Experimenters: an Introduction to Design, Data Analysis, and Model Building. 1st Edition (Wiley; 1978). This enabled calculation of a new PCA model using only the important features.
If a pharmacological or toxicological action affected multiple biochemical pathways that were represented by grossly different numbers of features in the measurement, block scaling was used. Eriksson L et al., Multi-and Megavariate Data Analysis-Principles and Applications. (Umetrics Academy; 2001). This attributed the same influence to all pathways (groups of features) in the calculation of the PCA model. […]

Series [3] deals with gene expression in organs. Kind of series: Blind monkey trial of three peptides: gene expression profiling of organs on Affymetrix U95 chips. In kind it is in vivo, cynomolgus monkeys. The note with it: 100 μg/animal/day sc, two weeks; listed as Peptide 1.
For series [4], the system named is Insulin-Like Growth Factor Binding Protein 2. Kind of series: Serum determination of insulin-like growth factor binding protein 2 in FGF23CTP-treated monkeys. In kind it is in vivo, cynomolgus monkey. How it is done: At the end of the treatment period samples from all organs are subjected to snap freezing at necropsy and are analyzed with GeneChip® expression profiling.
Serum levels were determined for IGFB2 and found to be decreased, in agreement with the decreased transcript levels in several organs, including the liver.

A short description of series [5]: Routine clinical and biochemical observations in FGF23CTP-treated monkeys. It counts as in vivo, cynomolgus monkey. The note with it: 100 μg/day sc, two weeks.
Setting [6] is: tibia, group mean (males and females).
Setting [7] is: tibia, individual animals (males and females).
Setting [8] is: vertebra, group mean (males and females).
Setting [9] is: vertebra, individual animals (males and females).
[10] abbreviates: 123 genes thought to have a role in uterine function.
[11] abbreviates: 225 genes, statistically significant >1.5-fold changes.
The mark [12] stands for this setting: 673 genes, >1.5-fold change disregarding statistical significance.

Where “and” joins values, the source holds several entries; their conditions need not be identical. Equal entries are not always repeated. Entries after “also recorded” stand apart in the source; their conditions may differ.

With “Leu8, Asp10, Lysll, A1a16, G1n18, Thr33, A1a34 human PTH 1-34 [PTS893, Leu8, Asp10, Lysll, A1a16, G1n18, Thr33, A1a34 human PTH 1-34 [hPTH(1-34)]]”, in series [1] (tibia), the “Increase in osteoid surface” value was found to be 49%, the “Increase in osteoid volume” value worked out at 37% and the “Increase in the osteoblast surface” value is on record as 40%. Besides, in series [1] (tibia (T)), the “Increase of cortical porosity” value was 54% and the “Reduction of cortical thickness” value stood at 18%. Also, in series [1] (setting [6]), the “BT/TV (trabecular bone volume)” value is listed as 21.72%, the “Ct Por (cortical porosity)” value was 2.90%, the “Ct Th (cortical thickness)” value came out at 951.48 μm and the “ES/BS (eroded surface)” value worked out at 4.11%. In addition, in series [1] (setting [6]), the “OS/BS (osteoid surface)” value turned out to be 49.25%, the “OV/BV (osteoid volume)” value was 9.74%, the “Obs/BS (osteoblast surface)” value is listed as 20.28% and the “Tb N (trabecular number)” value amounted to 1.85 mm^−1. The “Tb Th (trabecular thickness)” value in series [1] (setting [6]) turned out to be 117.25 μm. In series [1] (setting [7]), the “BT/TV (trabecular bone volume)” value was 19.69% and 16.65% and 25.74% and 24.78%; the “Ct Por (cortical porosity)” value was 2.76% and 2.94% (2×) and 2.95%; the “Ct Th (cortical thickness)” value was 1022.62 μm and 893.43 μm and 950.33 μm and 939.53 μm; the “ES/BS (eroded surface)” value was 4.62% and 4.76% and 4.21% and 2.85%. In series [1] (setting [7]), the “OS/BS (osteoid surface)” value is 54.84% and 43.57% and 43.63% and 54.97%; the “OV/BV (osteoid volume)” value was 11.24% and 9.61% and 8.14% and 9.95%; the “Obs/BS (osteoblast surface)” value is 16.16% and 21.25% and 18.46% and 25.25%; the “Tb N (trabecular number)” value was 1.52 mm^−1 and 1.79 mm^−1 and 2.13 mm^−1 and 1.97 mm^−1. In addition, the “Tb Th (trabecular thickness)” value in series [1] (setting [7]) is 129.22 μm and 93.20 μm and 120.52 μm and 126.07 μm. Also, in series [1] (vertebra), the “Increase in osteoid surface” value was found to be 37%, the “Increase in osteoid volume” value was found to be 213% and the “Increase in the osteoblast surface” value amounted to 24%. In series [1] (vertebra (V)), the “Reduction of cortical thickness and increase of cortical porosity” value was “not in vertebra”. In series [1] (setting [8]), the “BT/TV (trabecular bone volume)” value is recorded as 20.95%, the “Ct Por (cortical porosity)” value turned out to be 1.07%, the “Ct Th (cortical thickness)” value was 675.50 μm and the “ES/BS (eroded surface)” value stood at 4.53%. In series [1] (setting [8]), the “OS/BS (osteoid surface)” value was determined as 25.36%, the “OV/BV (osteoid volume)” value was determined as 4.45%, the “Obs/BS (osteoblast surface)” value is reported as 9.56% and the “Tb N (trabecular number)” value is given as 1.68 mm^−1. The “Tb Th (trabecular thickness)” value in series [1] (setting [8]) was found to be 123.43 μm. Besides, in series [1] (setting [9]), the “BT/TV (trabecular bone volume)” value was 15.15% and 20.23% and 23.56% and 24.86%; the “Ct Por (cortical porosity)” value was 1.49% and 1.45% and 0.41% and 0.92%; the “Ct Th (cortical thickness)” value is 707.43 μm and 629.35 μm and 740.87 μm and 624.35 μm; the “ES/BS (eroded surface)” value is 9.31% and 2.30% and 2.55% and 3.96%. Further, in series [1] (setting [9]), the “OS/BS (osteoid surface)” value is 18.84% and 41.28% and 23.65% and 17.66%; the “OV/BV (osteoid volume)” value was 3.24% and 8.42% and 3.49% and 2.66%; the “Obs/BS (osteoblast surface)” value is 10.36% and 9.07% and 10.47% and 8.33%; the “Tb N (trabecular number)” value is 1.44 mm^−1 and 1.70 mm^−1 and 1.75 mm^−1 and 1.84 mm^−1. Further, the “Tb Th (trabecular thickness)” value in series [1] (setting [9]) was 105.46 μm and 118.79 μm and 134.66 μm and 134.82 μm.
In the case of `O=C(c1ccc(OCCN2CCCCC2)cc1)c1c(-c2ccc(O)cc2)sc2cc(O)ccc12` [raloxifene], the figures for the “Estrogenic score (GEP score; OVX 0, estradiol 100)” value in series [2] (setting [10]), in series [2] (setting [11]) and in series [2] (setting [12]) were 20, 23 and 34, respectively. In addition, in series [2] (subanalysis per gene class), the “Estrogenic scores in specific gene groups (categories)” value is −11 to 32.
With “cyclo[4-(NH2—C2H4—NH—CO—O)Pro-Phg-DTrp-Lys-Tyr(4-Bzl)-Phe] [SOM230]”, in series [3], the “Conclusions of the in vivo Profiling by the Data Mining Team: Function/Pathway” value is “Anti-growth activity; also recorded: GI tract/pancreatic; also recorded: Immunosuppression”; the “Findings by the Data Mining Team: Adrenals (gene with direction)” value is given as “IGF2−; also recorded: somatostatin−; also recorded: insulin receptor+; also recorded: urocortin+”; the “Findings by the Data Mining Team: Bone marrow (gene with direction)” value is “VIP− and peptide YY− and cyclin− and GAPDH−”; the “Findings by the Data Mining Team: Kidney (gene with direction)” value is given as “Solute carrier protein 9++; also recorded: urocortin+; also recorded: IGF2−; also recorded: beta 2−; also recorded: THRα+”. Besides, in series [3], the “Findings by the Data Mining Team: Liver (gene with direction)” value was “IGF2− and NMDA receptor+ and glutamate dehydrogenase+ and VIP and insulin− induced protein1 and STR5”; the “Findings by the Data Mining Team: Pituitary (gene with direction)” value is “IGFR1− and GH1/2− and CSH(L)− and TSH− and CHRH2− and synthase++ and Immunoglobulin−−”; the “Findings by the Data Mining Team: Spleen (gene with direction)” value is “IGF2− and IGBP6− and insulin receptor− and urocortin+ and Ig− and ribosomal protein −− and Nk cells+”; the “Findings by the Data Mining Team: Stomach (gene with direction)” value is given as “Gastrin+; also recorded: hypocretin+; also recorded: glutamate receptor+; also recorded: GABAB−”. In series [3], the “Findings by the Data Mining Team: Thymus (gene with direction)” value is “IGFBP1+ and MHC classII− and Ig− and FKBP12− and CD4− and defensin alpha1+,”; the “Findings by the Data Mining Team: Thyroid (gene with direction)” value was “NPY− and cyclins−− and ATPase calcium channel+ and somatostatin receptor 4−,”.
`CC/C(=C(\c1ccccc1)c1ccc(OCCN(C)C)cc1)c1ccccc1` [tamoxifen]: the “Estrogenic score (GEP score; OVX 0, estradiol 100)” value was 69 in series [2] (setting [10]), 59 in series [2] (setting [11]) and 71 in series [2] (setting [12]).

B1: FGF23CTP: unique 75-mer COOH-terminal peptide of FGF-23, SEQ ID NO: 2 (peptide, listed as Homo sapiens)
chain: HTRSAEDDSERDPLNVLKPRARMTPAPASCSQELPSAEDNSPMASDPLGVVRGGRVNTHAGGTGPEGCRPFAKFI
As to B1, the “Serum Insulin-Like Growth Factor Binding Protein 2, mean” value in series [4] (100 μg/day) was 893 ng/mL. Moreover, the “Serum Insulin-Like Growth Factor Binding Protein 2, conc” value in series [4] (individual animals, 100 μg/day) is 987.6 ng/mL and 596.7 ng/mL and 749.5 ng/mL and 1239.8 ng/mL. The “Serum protein levels of circulating IGF2-binding protein” value in series [4] (treated animals, two weeks sc) is listed as “decreased”. In addition, in series [5], the “Effect on phosphate metabolism” value was “no effect” and the “Routine clinical or biochemical changes” value is recorded as “No routine clinical or biochemical changes”.

Values taken from patent US20130040882A1, “USE OF FIBROBLAST GROWTH FACTOR FRAGMENTS” (NOVARTIS AG, priority 2003, published 2013).
